Patent US8853194B2, “Sterol derivatives and their synthesis and use” (priority 2009, dated 2014)
Like-named read-outs stand apart in the source and are kept apart here.

Experiments:
mouse hepatoma cells H22 = tested on: mouse hepatoma cells H22
Protocol: (§1) Ascites mice S180 and H22 that had been vaccinated 7 days were sacrificed by cervical, from which ascites were obtained under sterile conditions respectively; the obtained ascites were washed twice with culture medium RPMI1640, and prepared to a 2×10^7/ml suspension in sterile physiological saline. The suspension of cell S180 was inoculated subcutaneously in the right axillas of 40 mice (0.1 ml/mouse) to produce solid tumor models; while the suspension of cell H22 was inoculated in abdominal cavities of 40 mice (0.2 ml/mouse) by conditional means under sterile conditions to produce ascites tumor models.
(§2) 90 mice were randomly divided into 9 groups of 3 types, wherein the first type group was a normal control group, the second type groups were S180 solid tumor groups including a positive (cyclophosphamide) control group, a negative control group, a low dose group and a high dose group, and the third type groups were H22 ascites groups including a positive (cyclophosphamide) control group, a negative control group, a low dose group and a high dose group. There were 10 mice in each group. The experiment was repeated for three times.
(§3) […], the negative control group was injected same volume of corn oil, and the positive control group was injected cyclophosphamide injection solution with the dose of 0.02 g/(Kg.d). The used injection volume was 0.1 ml/mouse and the injection was given as intraperitoneal injection every other day for 15 days. During the 15 days, general activities, fur, feces, etc. of the mice were daily observed. 24 hours after the last administration, mice that had been inoculated subcutaneously with S180 were sacrificed by cervical, from which tumors, thymus and spleen were taken out. After the last administration, mice that had been inoculated in abdominal cavities with H22 were conventionally bred continually, weighted and observed the survival time every day until all the mice in the negative group were dead.
24 hours after the inoculation of ascites, the weight and the amount of abdominal circumference of the mice in the groups of ascites models were measured. The drug administration and breeding were continued according to different groups, the weight and the abdominal circumference were measured daily until one day before death. The weight increase (g) and abdominal-circumference increase (cm) were calculated. The experiment started on the day of tumor inoculation and ended on the day when all the mice in the negative control group were dead; the time of deaths were recorded, and the survival extending rate was calculated. Survival Extending Rate(%)=[(mean survival days of treatment group−mean survival days of negative control group)/mean survival days of control group]×100%
(§4) After finishing the administration in all mice in the solid tumor group, the mice were sacrificed and their spleens and livers were weighed by electronic balance. The spleen index was equivalent to the spleen weight (mg) of mice in each group divided by the weight of the mice, while the liver index was equivalent to the liver weight […] divided by the weight (g) of the mice.

Caspase 3 = conditions: 2.0 μg, HepG2 cells, A405
Protocol: 2.1.1 HepG2 cells were digested by trypsin in the cell culture medium. The resulting mixture (6000 was centrifuged for 5 minutes at 4° C. to collect the cells. The supernatant was carefully aspirated and discarded. The remains were washed once with PBS, added to lysate (100 μl/2×10^6 cells); and then, after resuspending the precipitation, ice cracked for 15 minutes.
2.1.2 The resulting mixture (16000 g) was centrifuged at 4° C. for 15 minutes.
2.1.3 The supernatant was transferred into a centrifugal tube that was pre-cooled by ice bath.
2.2.1 Took out pNA and a suitable amount of Ac-DEVD-PNA (2 mM), put them on the ice bath for later use;
2.2.3 Incubating at 37° C. for 120 minutes, detecting Caspase 3 with A405;

Bcl-2 = conditions: tumor tissue, ratio to β-actin, n=3
mouse sarcoma cells S180 = tested on: mouse sarcoma cells S180
Protocol: as §1, §2, §3, §4
On the next day after drug withdrawal, the mice in the solid-tumor […] group were weighed and sacrificed by cervical, wherein the serum was collected by eye bleeding for later use in subsequent experiments. Tumor tissues were dissected and weighed by electronic balance. The tumor inhibition rate was calculated as follows. Tumor Inhibition Rate(%)=[(mean tumor weight of negative control group−mean tumor weight of treatment group)/mean tumor weight of control group]×100%

P53 = conditions: tumor tissue, ratio to β-actin, n=3
Protocol: (§5) 3. Detecting the activity of tumor cells VEGF, P53, P21, Bcl-2 (taking β-Actin as an internal reference)
(§6) Using Protein Electrophoresis (Western Blot) Method
(§7) A bean sized tumor tissue dissected previously was shredded and put into a pre-cooled tissue grinder. 400 μl tissue lysis solution was added. After 10 minutes carefully grinding, the mixture was transferred into a 1.5 ml centrifugal tube, and then, after intensely vortexing the tube for 15 seconds, the mixture was placed on ice for 10 minutes and repeatedly oscillated. After centrifuging 20 minutes (12000 rpm), the supernatant was collected, transferred into a pre-cooled Eppendorf tube, and then separately charged and frozen stored at −80° C. for detecting the activity level of various antibodies.
(§8) 3.4.3 Reaction with the first antibody: The first antibody was diluted by TBST solution at a ratio of 1:200, and then reacted with the PVDF film at 4° C. for a night. In the next day, after balanced at room temperature for one hour, the reaction mixture was washed with TBST for 3 times.

VEGF = conditions: tumor tissue, ratio to β-actin, n=3
Protocol: as §5, §6, §7, §8

P21 = conditions: tumor tissue, ratio to β-actin, n=3
Protocol: as §5, §6, §7, §8

[1] = H22 ascites mice, low dose 16 mg/kg i.p. every other day for 15 days
[2] = S180 sarcoma mice, low dose 16 mg/kg i.p. every other day for 15 days

Structure (SMILES): CC(C)CCC[C@@H](C)[C@H]1CC[C@@H]2[C@]1(C)CC[C@H]1[C@]23C=C[C@]2(CC(=O)CC[C@]12C)OO3 [CL168-6, 5α,8α-cyclicobioxygen-6-cholesten-3-one]
- Abdominal circumference increase (cm) (mouse hepatoma cells H22; H22 ascites mice, high dose 32 mg/kg i.p. every other day for 15 days): 2.32 ± 0.71^(2)(4) cm
- Abdominal circumference increase (cm) (mouse hepatoma cells H22; [1]): 2.84 ± 0.34^(2)(3) cm
- Survival extending rate (%) (mouse hepatoma cells H22; [1]): 37.11%
- Survival time (day) (mouse hepatoma cells H22; [1]): 13.3 ± 1.77^(4) day
- Weight increase (g) (mouse hepatoma cells H22; [1]): 7.16 ± 1.39^(4) g
- Liver index (100 g/g) (mouse hepatoma cells H22; mouse, in vivo, ip, 16 mg/kg): 4.9 ± 0.24^(1)(4) 100 g/g
- Spleen index (mg/g) (mouse hepatoma cells H22; mouse, in vivo, ip, 16 mg/kg): 6.53 ± 1.29^(2)(4) mg/g
- Liver index (100 g/g) (mouse hepatoma cells H22; mouse, in vivo, ip, 32 mg/kg): 5.19 ± 0.64^(2)(4) 100 g/g
- Spleen index (mg/g) (mouse hepatoma cells H22; mouse, in vivo, ip, 32 mg/kg): 5.76 ± 0.96^(2)(4) mg/g
- Survival extending rate (%) (mouse hepatoma cells H22; mouse, in vivo, ip, 32 mg/kg): 51.55%
- Survival time (day) (mouse hepatoma cells H22; mouse, in vivo, ip, 32 mg/kg): 14.7 ± 1.41^(4) day
- Weight increase (g) (mouse hepatoma cells H22; mouse, in vivo, ip, 32 mg/kg): 5.05 ± 1.88^(4) g
- OD value of Caspase3 (Caspase 3; 24 h): 0.190
- OD value of Caspase3 (Caspase 3; 48 h): 0.185
- relative expression level of bcl-2 (Bcl-2): 0.75±0.04
- Tumor weight (g) (mouse sarcoma cells S180; S180 sarcoma mice, high dose 32 mg/kg i.p. every other day for 15 days): 0.629 ± 0.133^(3) g
- Tumor inhibition rate (%) (mouse sarcoma cells S180; S180 sarcoma mice, high dose 32 mg/kg i.p. every other day for 15 days, 32 mg/kg): 54.58%
- Tumor weight (g) (mouse sarcoma cells S180; [2]): 0.771 ± 0.407^ g
- Weight increase (mouse sarcoma cells S180; [2]): 6.71 ± 1.22 g
- Tumor inhibition rate (%) (mouse sarcoma cells S180; S180 sarcoma mice, low dose 16 mg/kg i.p. every other day for 15 days, 16 mg/kg): 44.33%
- Liver index (100 g/g) (mouse sarcoma cells S180; mouse, in vivo, ip, 16 mg/kg): 4.45 ± 0.19 100 g/g
- Spleen index (mg/g) (mouse sarcoma cells S180; mouse, in vivo, ip, 16 mg/kg): 5.32 ± 0.68^(2)(4) mg/g
- Liver index (100 g/g) (mouse sarcoma cells S180; mouse, in vivo, ip, 32 mg/kg): 4.38 ± 0.13 100 g/g
- Spleen index (mg/g) (mouse sarcoma cells S180; mouse, in vivo, ip, 32 mg/kg): 5.34 ± 0.73^(2)(4) mg/g
- Weight increase (mouse sarcoma cells S180; mouse, in vivo, ip, 32 mg/kg): 6.00 ± 1.11 g
- relative expression level of P53 (P53): 0.74±0.03
- relative expression level of VEGF (VEGF): 0.46±0.08
- relative expression level of P21 (P21): 0.79±0.07
